Results published in ChEMBL document CHEMBL1687838, “The in vitro contribution of autolysins to bacterial killing elicited by amoxicillin increases with inoculum size in Enterococcus faecalis” (2011).
In brackets after ≈: the same amount, converted by molar mass. Activity calls are given as the source filed them. The calls are words filed in the database; no cut-off is given here.

What was measured:
Enterococcus faecalis [1] = test: Bactericidal activity against 5 X 10^8 CFU/ml Enterococcus faecalis JH2-2 harboring deletion at AltA, AltB and AltC gene at 2 ug/ml after 6 hrs by time kill analysis; type: functional
Enterococcus faecalis [2] = test: (§1) Bactericidal activity against 5 X 10^8 CFU/ml Enterococcus faecalis JH2-2 harboring deletion at AltA, AltB and AltC gene infected in rabbit assessed as bacterial load per gram of vegetation at 50 mg/kg, im administered three times a day starting 48 hrs post-infection measured after 24 hrs by time kill analysis (reference value: 8.69+- 1.19 log10 CFU/g); type: functional; conditions: route intramuscular
Enterococcus faecalis [3] = test: Antibacterial activity against Enterococcus faecalis JH2-2 assessed as induction of membrane permeabilization at 2 ug/ml after 3 hrs by propidium iodide and Syto9 staining based confocal microscopic analysis; type: functional, organism-based
Enterococcus faecalis [4] = test: Antibacterial activity against Enterococcus faecalis JH2-2 by CLSI method; type: functional
Enterococcus faecalis [5] = test: Bactericidal activity against 5 X 10^8 CFU/ml Enterococcus faecalis JH2-2 at 2 ug/ml after 3 hrs by time kill analysis; type: functional
Enterococcus faecalis [6] = test: Bactericidal activity against 5 X 10^6 CFU/ml Enterococcus faecalis JH2-2 harboring deletion at AltA, AltB and AltC gene at 2 ug/ml after 3 hrs by time kill analysis; type: functional
Enterococcus faecalis [7] = test: Bactericidal activity against 5 X 10^8 CFU/ml Enterococcus faecalis JH2-2 at 2 ug/ml after 6 hrs by time kill analysis; type: functional
Enterococcus faecalis [8] = test: Bactericidal activity against 5 X 10^6 CFU/ml Enterococcus faecalis JH2-2 harboring deletion at AltA, AltB and AltC gene at 2 ug/ml after 6 hrs by time kill analysis; type: functional
Enterococcus faecalis [9] = test: Bactericidal activity against 5 X 10^6 CFU/ml Enterococcus faecalis JH2-2 at 2 ug/ml after 24 hrs by time kill analysis; type: functional
Enterococcus faecalis [10] = test: Bactericidal activity against 5 X 10^8 CFU/ml Enterococcus faecalis JH2-2 harboring deletion at AltA, AltB and AltC gene at 2 ug/ml after 24 hrs by time kill analysis; type: functional
Enterococcus faecalis [11] = test: as §1, with “JH2-2” for “JH2-2 harboring deletion at AltA, AltB and AltC gene”, “9.29+- 0.83” for “8.69+- 1.19”; type: functional; conditions: route intramuscular
Enterococcus faecalis [12] = test: Bactericidal activity against 5 X 10^8 CFU/ml Enterococcus faecalis JH2-2 at 2 ug/ml after 24 hrs by time kill analysis; type: functional
Enterococcus faecalis [13] = test: Bactericidal activity against 5 X 10^6 CFU/ml Enterococcus faecalis JH2-2 at 2 ug/ml after 3 hrs by time kill analysis; type: functional
Enterococcus faecalis [14] = test: Bactericidal activity against 5 X 10^6 CFU/ml Enterococcus faecalis JH2-2 at 2 ug/ml after 6 hrs by time kill analysis; type: functional
Enterococcus faecalis [15] = test: Antibacterial activity against Enterococcus faecalis JH2-2 harboring deletion at AltA, AltB and AltC gene by CLSI method; type: functional
Enterococcus faecalis [16] = test: Bactericidal activity against 5 X 10^8 CFU/ml Enterococcus faecalis JH2-2 harboring deletion at AltA, AltB and AltC gene at 2 ug/ml after 3 hrs by time kill analysis; type: functional
Enterococcus faecalis [17] = test: Antibacterial activity against Enterococcus faecalis JH2-2 harboring deletion at AltA, AltB and AltC gene assessed as induction of membrane permeabilization at 2 ug/ml after 3 hrs by propidium iodide and Syto9 staining based confocal microscopic analysis; type: functional, organism-based
Enterococcus faecalis [18] = test: Bactericidal activity against 5 X 10^6 CFU/ml Enterococcus faecalis JH2-2 harboring deletion at AltA, AltB and AltC gene at 2 ug/ml after 24 hrs by time kill analysis; type: functional

Compound: CC1(C)S[C@@H]2[C@H](NC(=O)[C@H](N)c3ccc(O)cc3)C(=O)N2[C@H]1C(=O)O [AMOXICILLIN]
- log10CFU/ml (Enterococcus faecalis [1]): 0.79
- log10CFU/g (Enterococcus faecalis [2]): 7.5
- Activity (Enterococcus faecalis [3]): Active
- MIC (Enterococcus faecalis [4]): 0.5 mg/L (≈ 1.37 µM)
- log10CFU/ml (Enterococcus faecalis [5]): 1.73
- log10CFU/ml (Enterococcus faecalis [6]): 3.15
- log10CFU/ml (Enterococcus faecalis [7]): 4.59
- log10CFU/ml (Enterococcus faecalis [8]): 1.45
- log10CFU/ml (Enterococcus faecalis [9]): 2.48
- log10CFU/ml (Enterococcus faecalis [10]): 2.46
- log10CFU/g (Enterococcus faecalis [11]): 7.69
- log10CFU/ml (Enterococcus faecalis [12]): 1.1
- log10CFU/ml (Enterococcus faecalis [13]): 2.07
- log10CFU/ml (Enterococcus faecalis [14]): 4.86
- MIC (Enterococcus faecalis [15]): 0.5 mg/L (≈ 1.37 µM)
- log10CFU/ml (Enterococcus faecalis [16]): 2.83
- Activity (Enterococcus faecalis [17]): Active
- log10CFU/ml (Enterococcus faecalis [18]): 4.44
